Counter-ions that a name gives are not always drawn. Like-named read-outs stand apart in the source and are kept apart here.
Molecular target: CCR8 (Homo sapiens, UniProt P51685)
Test: Tango assay (Tango-CCR8-Gal4-CHO-K1 cells, CCL1-stimulated, ONE-Glo luminescence)
[1] = Tango Assay IC50, Inhibition of CCR8 Tango cell in vitro
[2] = read-out: Tango Assay IC50, Inhibition of CCR8 Tango cell in vitro

Sequence of CCR8 (P51685 whole entry, the tested form may be a part): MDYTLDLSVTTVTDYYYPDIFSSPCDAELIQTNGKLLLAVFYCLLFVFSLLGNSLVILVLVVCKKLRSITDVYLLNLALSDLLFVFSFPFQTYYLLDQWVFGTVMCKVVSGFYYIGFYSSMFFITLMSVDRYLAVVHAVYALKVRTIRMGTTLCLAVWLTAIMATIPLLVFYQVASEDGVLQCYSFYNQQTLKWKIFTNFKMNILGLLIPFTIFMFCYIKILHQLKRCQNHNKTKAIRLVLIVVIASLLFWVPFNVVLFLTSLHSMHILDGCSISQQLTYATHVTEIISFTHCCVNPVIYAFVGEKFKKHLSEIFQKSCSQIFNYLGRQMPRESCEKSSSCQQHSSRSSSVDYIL

Compound | IC50 [1] [nM] | IC50 [2] [nM]
COc1ccccc1C(C)NS(=O)(=O)c1ccc(NC(=O)c2ccccc2C)c2ccccc12 (stereo not drawn) [Compound 51, N-(4-(N-(1-(2-methoxyphenyl)ethyl)sul-famoyl)naphthalen-1-yl)-2-methylbenzamide] | > 10000 | 
Cc1ccccc1C(=O)Nc1ccc(S(=O)(=O)NC2CCc3n[nH]cc3C2)c2ccccc12 (stereo not drawn) [Compound 52, 2-methyl-N-(4-(N-(4,5,6,7-tetrahydro-2H-indazol-5-yl)sulfamoyl)naphthalen-1-yl)benzamide] | > 10000 | 
Cc1ccccc1C(=O)Nc1ccc(S(=O)(=O)NC2CCOc3ccccc32)cc1 (stereo not drawn) [Compound 53, N-(4-(N-(chroman-4-yl)sulfamoyl)phenyl)-2-methylbenzamide] | > 10000 | 
Cc1ccccc1C(=O)Nc1ccc(S(=O)(=O)NC(C)c2cccc(C(=O)O)c2)cc1 (stereo not drawn) [Compound 54, 3-(1-(4-(2-methylbenzamido)phe-nylsulfonamido)ethyl) benzoic acid] | > 10000 | 
Cc1ccccc1C(=O)Nc1ccc(S(=O)(=O)NC(C)c2nccs2)c2ccccc12 (stereo not drawn) [Compound 56, 2-methyl-N-(4-(N-(1-(thiazol-2-yl)ethyl)sulfamoyl)naph-thalen-1-yl)benzamide] | 2790 | 
CC(=O)N1CCC(C(C)NS(=O)(=O)c2ccc(NC(=O)c3ccccc3C)c3ccccc23)CC1 (stereo not drawn) [Compound 62, N-(4-(N-(1-(1-acetylpiperidin-4-yl)ethyl)sulfamoyl)naph-thalen-1-yl)-2-methylbenzamide] | 705 | 
Cc1ccccc1C(=O)Nc1ccc(S(=O)(=O)NC23CC(C2)C3)c2ccccc12 [Compound 63, N-(4-(N-(bicyclo[1.1.1]pentan-1-yl)sulfamoyl)naphthalen-1-yl)-2-methylbenzamide] | > 10000 | 
CCN(C)C(=O)C12CC(NS(=O)(=O)c3ccc(NC(=O)c4ccccc4C)c4ccccc34)(C1)C2 [Compound 64, N-ethyl-N-methyl-3-(4-(2-methylbenzamido)naph-thalene-1-sulfonamido)bicyclo [1.1.1]pentane-1-carboxamide] | > 10000 | 
Cc1ccccc1C(=O)Nc1ccc(S(=O)(=O)NC(C)C2CCN(C(=O)OC(C)(C)C)C2)c2ccccc12 (stereo not drawn) [Compound 65, tert-butyl 3-(1-(4-(2-methylbenzamido)naph-thalene-1-sulfonamido)ethyl)pyr-rolidine-1-carboxylate] | 1100 | 
Cc1ccccc1C(=O)Nc1ccc(S(=O)(=O)NC(C)C2CCNC2)c2ccccc12 (stereo not drawn) [Compound 66, 2-methyl-N-(4-(N-(1-(pyrrolidin-3-yl)ethyl)sulfamoyl)naph-thalen-1-yl)benzamide] |  | 85
Cc1ccccc1C(=O)Nc1ccc(S(=O)(=O)NC(C)C2CCCCN2)c2ccccc12 (stereo not drawn) [Compound 69A, 2-methyl-N-(4-(N-(1-(piperidin-2-yl)ethyl)sulfamoyl)naph-thalen-1-yl)benzamide] | > 10000 | 
Cc1ccccc1C(=O)Nc1ccc(S(=O)(=O)NC(C)C2CCCCN2)c2ccccc12 (stereo not drawn) [Compound 69B, 2-methyl-N-(4-(N-(1-(piperidin-2-yl)ethyl)sulfamoyl)naph-thalen-1-yl)benzamide] |  | > 10000
Cc1ccccc1C(=O)Nc1ccc(S(=O)(=O)NC(C)c2cccc(N)c2)c2ccccc12 (stereo not drawn) [Compound 72A, N-(4-(N-(1-(3-aminophenyl)ethyl)sul-famoyl)naphthalen-1-yl)-2-methylbenzamide hydrochloride] | 1140 | 
COc1cccc(C(C)NS(=O)(=O)c2ccc(NC(=O)c3ccccc3C)c3ccccc23)c1 (stereo not drawn) [Compound 73, N-(4-(N-(1-(3-methoxyphenyl)ethyl)sul-famoyl)naphthalen-1-yl)-2-methylbenzamide] | 764 | 
Cc1ccccc1C(=O)Nc1ccc(S(=O)(=O)NC(C)CN2CCC(C)CC2)c2ccccc12 (stereo not drawn) [Compound 74, 2-methyl-N-(4-(N-(1-(4-methylpiperidin-1-yl)propan-2-yl)sulfamoyl)naphthalen-1-yl)benzamide] | 647 | 
CC(NS(=O)(=O)c1ccc2[nH]cnc2c1)C1CCCCC1 (stereo not drawn) [Compound 78, N-(1-cyclohexylethyl)-1H-benzo[d]imidazole-5-sulfonamide] | > 10000 | 
CC(NS(=O)(=O)c1ccc2[nH]ncc2c1)C1CCCCC1 (stereo not drawn) [Compound 79, N-(1-cyclohexylethyl)-1H-indazole-5-sulfonamide] | > 1000 | 
CC(NS(=O)(=O)c1ccc2[nH]c(=O)[nH]c2c1)C1CCCCC1 (stereo not drawn) [Compound 80, N-(1-cyclohexylethyl)-2-oxo-2,3-dihydro-1H-benzo[d]imidazole-5-sulfonamide] | > 10000 | 
Cc1ccccc1C(=O)Nc1ccc(S(=O)(=O)NC(C)C(=O)N2CCC(C)CC2)c2ccccc12 (stereo not drawn) [Compound 83, 2-methyl-N-(4-(N-(1-(4-methylpiperidin-1-yl)-1-oxopropan-2-yl)sulfamoyl)naphthalen-1-yl)benzamide] | > 10000 | 
CC(=O)N1CCOC(C(C)NS(=O)(=O)c2ccc(NC(=O)c3ccccc3C)c3ccccc23)C1 (stereo not drawn) [Compound 86, N-(4-(N-(1-(4-acetylmorpholin-2-yl)ethyl)sulfamoyl)naph-thalen-1-yl)-2-methylbenzamide] | 2300 | 
CC(=O)NC1CCc2cc(S(=O)(=O)NC(C)C3CCCCC3)ccc21 (stereo not drawn) [Compound 87, N-(5-(N-(1-cyclohexylethyl)sulfam-oyl)-2,3-dihydro-1H-inden-1-yl)acetamide] | > 10000 | 
CC(NS(=O)(=O)c1ccc2c(c1)CCC2NC(=O)c1ccccc1)C1CCCCC1 (stereo not drawn) [Compound 88, N-(5-(N-(1-cyclohexylethyl)sulfam-oyl)-2,3-dihydro-1H-inden-1-yl)benzamide] | 1100 | 
Cc1ccccc1C(=O)Nc1ccc(S(=O)(=O)NC2CCC23CCN(C(=O)OC(C)(C)C)CC3)c2ccccc12 (stereo not drawn) [Compound 89, tert-butyl 1-(4-(2-methylbenzamido)naph-thalene-1-sulfonamido)-7-azaspiro[3.5]nonane-7-carboxylate] | 620 | 
Cc1ccccc1C(=O)Nc1ccc(S(=O)(=O)NC2CCC23CCNCC3)c2ccccc12 (stereo not drawn) [Compound 90, N-(4-(N-(7-azaspiro[3.5]nonan-1-yl)sulfamoyl)naphthalen-1-yl)-2-methylbenzamide] | > 10000 | 

More lines, in order of falling IC50 [1], values ahead:

IC50 [1] [nM] | IC50 [2] [nM] | Compound
520 |  | COC(=O)[C@@H](NS(=O)(=O)c1ccc(NC(=O)c2ccccc2C)c2ccccc12)C1CCCCC1 [Compound 49, (S)-methyl 2-cyclohexyl-2-(4-(2-methylbenzamido)naph-thalene-1-sulfonamido)acetate]
351 |  | Cc1ccccc1C(=O)Nc1ccc(S(=O)(=O)NC2CCc3nc(N)sc3C2)c2ccccc12 (stereo not drawn) [Compound 85, N-(4-(N-(2-amino-4,5,6,7-tetrahydrobenzo[d]thia-zol-6-yl)sulfamoyl)naphthalen-1-yl)-2-methylbenzamide]
170 |  | Cc1ccccc1C(=O)Nc1ccc(S(=O)(=O)NC(CO)C2CCCCC2)c2ccccc12 (stereo not drawn) [Compound 48, N-(4-(N-(1-cyclohexyl-2-hydroxyethyl)sulfamoyl)naphthalen-1-yl)-2-methylbenzamide]
160 |  | Cc1ccccc1C(=O)Nc1ccc(S(=O)(=O)NC(C)C2CCN(C(=O)OC(C)(C)C)CC2)c2ccccc12 (stereo not drawn) [Compound 60, tert-butyl 4-(1-(4-(2-methylbenzamido)naph-thalene-1-sulfonamido)ethyl)piper-idine-1-carboxylate]
147 |  | Cc1ccccc1C(=O)Nc1ccc(S(=O)(=O)NC(C)c2cccc(NC(=O)OC(C)(C)C)c2)c2ccccc12 (stereo not drawn) [Compound 71, tert-butyl (3-(1-(4-(2-methylbenzamido)naph-thalene-1-sulfonamido)ethyl)phe-nyl)carbamate]
142 |  | Cc1ccccc1C(=O)Nc1ccc(S(=O)(=O)NC(C)C(C)C)c2ccccc12 (stereo not drawn) [Compound 81, 2-methyl-N-(4-(N-(3-methylbutan-2-yl)sulfamoyl)naphthalen-1-yl)benzamide]
33 |  | Cc1ccccc1C(=O)Nc1ccc(S(=O)(=O)NC(C)C(C)(C)C)c2ccccc12 (stereo not drawn) [Compound 82, N-(4-(N-(3,3-dimethylbutan-2-yl)sulfamoyl)naphthalen-1-yl)-2-methylbenzamide]
12 |  | COC(=O)[C@H](NS(=O)(=O)c1ccc(NC(=O)c2ccccc2C)c2ccccc12)C1CCCCC1 [Compound 50, (R)-methyl 2-cyclohexyl-2-(4-(2-methylbenzamido)naph-thalene-1-sulfonamido)acetate]
12 |  | Cc1ccccc1C(=O)Nc1ccc(S(=O)(=O)N[C@@H](C)C2CCCCC2)c2ccccc12 [Compound 58, (S)-N-(4-(N-(1-cyclohexylethyl)sulfamo-yl)naphthalen-1-yl)-2-methylbenzamide]
7.6 |  | Cc1ccccc1C(=O)Nc1ccc(S(=O)(=O)NC(C)CC2CCCCC2)c2ccccc12 (stereo not drawn) [Compound 75, N-(4-(N-(1-cyclohexylpropan-2-yl)sulfamoyl)naphthalen-1-yl)-2-methylbenzamide]
3 |  | Cc1ccccc1C(=O)Nc1ccc(S(=O)(=O)NC(C)C2CCCCC2)c2ccccc12 (stereo not drawn) [Compound 57, N-(4-(N-(1-cyclohexylethyl)sulfamo-yl)naphthalen-1-yl)-2-methylbenzamide]
1.8 |  | Cc1ccccc1C(=O)Nc1ccc(S(=O)(=O)NC(C)C2CCCCCC2)c2ccccc12 (stereo not drawn) [Compound 76, N-(4-(N-(1-cycloheptylethyl)sulfamo-yl)naphthalen-1-yl)-2-methylbenzamide]
1.6 |  | Cc1ccccc1C(=O)Nc1ccc(S(=O)(=O)N[C@H](C)C2CCCCC2)c2ccccc12 [Compound 59, (R)-N-(4-(N-(1-cyclohexylethyl)sulfamo-yl)naphthalen-1-yl)-2-methylbenzamide]
0.4 |  | Cc1ccccc1C(=O)Nc1ccc(S(=O)(=O)NC(C)C2CC3CCC2CC3)c2ccccc12 (stereo not drawn) [Compound 77, N-(4-(N-(1-(bicyclo[2.2.2]octan-2-yl)ethyl)sulfamoyl)naph-thalen-1-yl)-2-methylbenzamide]
0.2 |  | Cc1ccccc1C(=O)Nc1ccc(S(=O)(=O)NC(C)C23CC4CC(CC(C4)C2)C3)c2ccccc12 (stereo not drawn) [Compound 84, N-(4-(N-(1-((3r,5r,7r)-adamantan-1-yl)ethyl)sulfamoyl)naph-thalen-1-yl)-2-methylbenzamide]

From US12552753B2, “Methods and compositions for targeting Tregs using CCR8 inhibitors” (Nanjing Immunophage Biomedical Co., Ltd., priority 2020, dated 2026)
